Reference: patent publication US20190185865A1, “USE OF PROKARYOTIC TRANSCRIPTIONAL ACTIVATORS AS METABOLITE BIOSENSORS IN EUKARYOTIC CELLS” (Danmarks Tekniske Universitet, priority 2016, published 2019)
Values joined by “and” are separate entries in the source; they are usually repeats but may differ in a detail not shown here. Equal entries are not always repeated.

How the values were obtained:
BenM = test: CCM-induced GFP expression in yeast strains combining BenM expression cassettes and CYC1p reporter promoter variants (flow cytometry); type: cell-based, Saccharomyces cerevisiae; settings: for FC (+/−CCM): 1.4 mM CCM, 24 h
Text: Strains, chemicals and media. Saccharomyces cerevisiae CEN.PK102-5B (MATa ura3-52 his3Δ1 leu2-3/112 MAL2-8^c SUC2), CEN.PK113-5A (MATa, trp1 his3Δ1 leu2-3/112 MAL2-8^c SUC2) and CEN.PK113-7D (wild type, MATa MAL2-8^c SUC2) strains were obtained from Peter Kotter (Johann Wolfgang Goethe-University Frankfurt, Germany). In principal any other yeast strains may be used, such as one obtained from public repository EuroScarf. EasyClone plasmids used in this work are described in Jensen, N. B. et al. EasyClone: method for iterative chromosomal integration of multiple genes in Saccharomyces cerevisiae. FEMS Yeast Res. 14, 238-48 (2014). Escherichia coli strain DH5a was used as a host for cloning and plasmid propagation. The chemicals and Pfu TURBO DNA polymerase were commercially obtained (Sigma-Aldrich and Agilent Technologies Inc., respectively). All acids used were >97% in purity. S. cerevisiae cells were grown at 30° C. in synthetic complete medium as well as drop-out media and agar plates were prepared using pre-mixed drop-out powders (Sigma-Aldrich). Mineral medium was freshly prepared as described previously. For all media containing diacids, 1.4 mM of the individual diacids were dissolved in mineral medium and pH adjusted to 4.5 before sterile filtration. For CCM several dilutions were made to examine the performance of the CCM biosensor. For naringenin, mineral medium was supplemented with 0, 0.05, 0.10 or 0.20 mM naringenin, dissolved in ethanol, the final ethanol concentration for each medium was 2% (v/v), and the final pH of the medium was adjusted to 6.0. E. coli cells were grown at 37° C. in Luria-Bertani (LB) medium supplemented with 100 μg/mL ampicillin.
Events were analyzed using FlowJo software (TreeStar Inc.).

yeast cells = test: Growth of yeast cells in liquid medium containing CCM; type: cell-based, Saccharomyces cerevisiae; settings: pH 4.5
Procedure: FIG. 9 (a) Uptake of cis,cis-muconic acid (CCM) at pH 4.5 by S. cerevisiae cells following 24 h of growth. (b) Representative growth curves of yeast cells in liquid medium containing different concentrations of CCM. OD values were determined at 1-h intervals over 25-h period. For both (a) and (b) data display means±s.d. from three (n=3) biological replicate cultivations.

[1] = Solubility in growth medium; type: physicochemical; settings: aqueous buffer, read-out: highest soluble CCM concentration
[2] = strain MeLS0131, 491bp_CYC1p:GFP
[3] = strain MeLS0132, 272bp_CYC1p:GFP
[4] = strain MeLS0133, 249bp_CYC1p:GFP
[5] = strain MeLS0134, 209bp_CYC1p:GFP
[6] = strain MeLS0135, 491bp_CYC1p_BenO_T1:GFP
[7] = strain MeLS0136, 272bp_CYC1p_BenO_T1:GFP
[8] = strain MeLS0137, 249bp_CYC1p_BenO_T1:GFP
[9] = strain MeLS0138, 209bp_CYC1p_BenO_T1:GFP
[10] = strain MeLS0177, 491bp_CYC1p_BenO_T2:GFP
[11] = strain MeLS0178, 491bp_CYC1p_BenO_T1/T2:GFP
[12] = strain MeLS0180, 209bp_CYC1p_BenO_T2:GFP
[13] = strain MeLS0181, 209bp_CYC1p_BenO_T1/T2:GFP
[14] = strain MeLS0259, 272bp_CYC1p_BenO_T2:GFP
[15] = strain MeLS0260, 249bp_CYC1p_BenO_T2:GFP
[16] = strain MeLS0261, 272bp_CYC1p_BenO_T1/T2:GFP
[17] = strain MeLS0262, 249bp_CYC1p_BenO_T1/T2:GFP

In the case of O=C(O)/C=C\C=C/C(=O)O [CCM, cis, cis-muconic acid], the “Mean fluorescense intensities of GFP (24 h), CCM (1.4 mM)” value (“Mean fluorescense intensities of GFP” for short) (BenM; [2]) is reported as 2899, the “FC (+/−CCM)” value (BenM; [2]) is reported as 1.042 and the “Mean fluorescense intensities of GFP” value (BenM; [3]) is reported as 211. For the same compound, the “FC (+/−CCM)” value (BenM; [3]) was 1.213, the “Mean fluorescense intensities of GFP” value (BenM; [4]) was 219 and the “FC (+/−CCM)” value (BenM; [4]) was 1.043. The “Mean fluorescense intensities of GFP” value (BenM; [5]) was 171, the “FC (+/−CCM)” value (BenM; [5]) was 1.13 and the “Mean fluorescense intensities of GFP” value (BenM; [6]) was 801. For the same compound, the “FC (+/−CCM)” value (BenM; [6]) was 1.062, the “Mean fluorescense intensities of GFP” value (BenM; [7]) was 160 and the “FC (+/−CCM)” value (BenM; [7]) was 1.032. For the same compound, the “Mean fluorescense intensities of GFP” value (BenM; [8]) was 180, the “FC (+/−CCM)” value (BenM; [8]) was 1.151 and the “Mean fluorescense intensities of GFP” value (BenM; [9]) was 167. The “FC (+/−CCM)” value (BenM; [9]) was 1.133, the “Mean fluorescense intensities of GFP” value (BenM; [10]) was 698 and the “FC (+/−CCM)” value (BenM; [10]) was 1.088. For the same compound, the “Mean fluorescense intensities of GFP” value (BenM; [11]) was 241, the “FC (+/−CCM)” value (BenM; [11]) was 0.9731 and the “Mean fluorescense intensities of GFP” value (BenM; [12]) was 165. For the same compound, the “FC (+/−CCM)” value (BenM; [12]) was 1.088, the “Mean fluorescense intensities of GFP” value (BenM; [13]) was 165 and the “FC (+/−CCM)” value (BenM; [13]) was 1.102. The “Mean fluorescense intensities of GFP” value (BenM; [14]) was 201, the “FC (+/−CCM)” value (BenM; [14]) was 1.002 and the “Mean fluorescense intensities of GFP” value (BenM; [15]) was 313. For the same compound, the “FC (+/−CCM)” value (BenM; [15]) was 0.909, the “Mean fluorescense intensities of GFP” value (BenM; [16]) was 257 and the “FC (+/−CCM)” value (BenM; [16]) was 0.7988. For the same compound, the “Mean fluorescense intensities of GFP” value (BenM; [17]) was 203, the “FC (+/−CCM)” value (BenM; [17]) was 1 and the “growth of yeast in presence of CCM” value (yeast cells) was “without any growth defects”. The solubility [1] was 1400 µM and 200 µg/mL.
